We go through six molecules from patent publication US20070020298A1, “Inhalant formulation containing sulfoalkyl ether gamma-cyclodextrin and corticosteroid” (priority 2003, published 2007).

The conditions of data set [1]: nasal spray in aqueous sulfobutylether-β-cyclodextrin buffer, healthy volunteers; cited from earlier work.
Data set [2] in a line: Stability of fluticasone propionate in aqueous SBE6.1-γ-CD solution by HPLC (Example 13). It is filed as physicochemical. Conditions: for Stability by HPLC: 240 μg/mL in 10% SBE-γ-CD. The protocol:
SBE-γ-CD is suitable for stabilizing corticosteroids in aqueous solutions. A stability study was conducted using fluticasone propionate in aqueous solutions stored at 25° C. or 40° C. having a pH of 4.5 or 6.0.
Fluticasone propionate. A citrate buffer solution at a pH of 4.5 was prepared by mixing various portions of 0.003 M citric acid with 0.003 M of trisodium citrate. A phosphate buffer solution at a pH of 6.0 was prepared by mixing various portions of 0.003 M monobasic sodium phosphate with 0.003 M of dibasic sodium phosphate. These stock solutions contained 10% w/v SBE-Gamma (D.S.=6.1). An excess of fluticasone propionate was added to the vials and equilibrated on a rocker for three days. The samples were then filtered using a PVDF 0.22 μm syringe filter. Aliquots of the solutions were placed into clear glass 2 mL serum vials with aluminum crimp caps and daikyo flurotec septums, and stored at 25° C. and 40° C. Control samples were stored at 5° C. but are not reported here. HPLC analysis of the samples was performed initially, (at time 0), and after 30, 60, 90, and 120 days storage. A stability-indicating HPLC method was used.

Data set [3] can be described thus: Stability of mometasone furoate in aqueous SBE6.1-γ-CD solution by HPLC (Example 13). It is filed as physicochemical. The conditions noted are these: for Stability by HPLC: 240 μg/mL in […] SBE-γ-CD. Here is the method: A similar study was conducted for mometasone furoate except that a pH of 3.5 or 4.5 was used.
Mometasone furoate. Citrate buffer solutions at a pH of 3.5 and 4.5 were prepared by mixing various portions of 3 mM citric acid with 3 mM sodium citrate. […] An excess of mometasone furoate was added to the vials and equilibrated on a rocker for three days. The samples were then filtered using a PVDF 0.22 μm syringe filter. Aliquots of the solutions were placed into serum vials with rubber stoppers and aluminum crimp seal caps, and stored at 25° C. and 40° C. Control samples were stored at 5° C. […] A stability-indicating HPLC method was used.

The conditions of data set [4]: during the time period of observation, concentrations typically used to solubilize pharmaceutical formulations; cited from earlier work.

Like-named read-outs stand apart in the source and are kept apart here.

Turning to `CCC(=O)O[C@]1(C(=O)CO)[C@@H](C)C[C@H]2[C@@H]3CCC4=CC(=O)C=C[C@]4(C)[C@@]3(Cl)[C@@H](O)C[C@@]21C` [Beclomethasone 17-monopropionate, beclomethasone 17-monopropionate], the “Solubility of beclomethasone form” value is, setting by setting: (0.04 M SBE3.4 γ-CD) 0.04 M → 10621.6 μg/mL; (0.04 M SBE5.24 γ-CD) 0.04 M → 9500.8 μg/mL; (0.04 M SBE6.1 γ-CD) 0.04 M → 11666.9 μg/mL; (0.04 M SBE6.7 β-CD) 0.04 M → 6799.6 μg/mL; (0.04 M SBE7.5 γ-CD) 0.04 M → 8539.1 μg/mL; (0.04 M γ-CD) 0.04 M → 136.9 μg/mL.
As for `Cc1ncc2n1-c1ccc(Cl)cc1C(c1ccccc1F)=NC2` [midazolam], the side effects entry in data set [1] was “No serious side effects”.
Consider `CCC(=O)O[C@]1(C(=O)SCF)[C@H](C)C[C@H]2[C@@H]3C[C@H](F)C4=CC(=O)C=C[C@]4(C)[C@@]3(F)[C@@H](O)C[C@@]21C` [Fluticasone propionate, fluticasone propionate], for which the “Stability by HPLC” value in data set [2] (pH = 4.5/25° C., 1 Month) turned out to be 97.88 Area %; in data set [2] (pH = 4.5/25° C., 2 Months), 98.15 Area %; in data set [2] (pH = 4.5/25° C., 3 Months) it was 97.74 Area %; in data set [2] (pH = 4.5/25° C., 4 Months), 97.36 Area %; in data set [2] (pH = 4.5/25° C., Initial) it was 97.99 Area %; in data set [2] (pH = 4.5/40° C., 1 Month), 97.46 Area %. For the same molecule, the “Stability by HPLC” value stood at 97.75 Area % in data set [2] (pH = 4.5/40° C., 2 Months); 97.41 Area % in data set [2] (pH = 4.5/40° C., 3 Months); 96.56 Area % in data set [2] (pH = 4.5/40° C., 4 Months); 97.84 Area % in data set [2] (pH = 4.5/40° C., Initial). Moreover, the “change in the amount of fluticasone propionate” value in data set [2] (after a period of 4 months in SBE-γ-CD solution) is “little to no change”. Besides, the T90 entry in data set [2] (at both pHs (4.5 and 6.0)) is recorded as “greater than five years”. In addition, the estimated shelf-life result in data set [2] (fluticasone propionate formulation of the invention) was “greater than two years”.
Take `CCC(=O)OCC(=O)[C@@]1(O)[C@@H](C)C[C@H]2[C@@H]3CCC4=CC(=O)C=C[C@]4(C)[C@@]3(Cl)[C@@H](O)C[C@@]21C` [Beclomethasone 21-monopropionate, beclomethasone 21-monopropionate]: the “Solubility of beclomethasone form” value (0.04 M SBE3.4 γ-CD) came out at 0.04 M → 172.6 μg/mL; the “Solubility of beclomethasone form” value (0.04 M SBE5.24 γ-CD) is recorded as 0.04 M → 139.8 μg/mL; the “Solubility of beclomethasone form” value (0.04 M SBE6.1 γ-CD) is given as 0.04 M → 153.8 μg/mL; the “Solubility of beclomethasone form” value (0.04 M SBE6.7 β-CD) was 0.04 M → 50.6 μg/mL; the “Solubility of beclomethasone form” value (0.04 M SBE7.5 γ-CD) was determined as 0.04 M → 122.4 μg/mL; the “Solubility of beclomethasone form” value (0.04 M γ-CD) was determined as 0.04 M → 9.4 μg/mL.
Regarding `C[C@@H]1C[C@H]2[C@@H]3CCC4=CC(=O)C=C[C@]4(C)[C@@]3(Cl)[C@@H](O)C[C@]2(C)[C@@]1(OC(=O)c1ccco1)C(=O)CCl` [Mometasone furoate, mometasone furoate], the “Stability by HPLC” value in data set [3] (pH = 3.5/25° C., 1 Month) stood at 99.74 Area %; in data set [3] (pH = 3.5/25° C., 1 Week), 99.82 Area %; in data set [3] (pH = 3.5/25° C., 2 Months) it was 99.73 Area %; in data set [3] (pH = 3.5/25° C., 2 Weeks) it was 99.79 Area %; in data set [3] (pH = 3.5/25° C., 3 Months), 99.68 Area %; in data set [3] (pH = 3.5/25° C., 6 Months) it was 99.36 Area %. Moreover, the “Stability by HPLC” value was found to be 99.72 Area % in data set [3] (pH = 3.5/25° C., Initial); 99.10 Area % in data set [3] (pH = 3.5/40° C., 1 Month); 99.72 Area % in data set [3] (pH = 3.5/40° C., 1 Week); 98.56 Area % in data set [3] (pH = 3.5/40° C., 2 Months); 99.55 Area % in data set [3] (pH = 3.5/40° C., 2 Weeks); 97.97 Area % in data set [3] (pH = 3.5/40° C., 3 Months). Further, the “Stability by HPLC” value in data set [3] (pH = 3.5/40° C., 6 Months) turned out to be 94.97 Area %; in data set [3] (pH = 3.5/40° C., Initial) it was 99.72 Area %; in data set [3] (pH = 4.5/40° C., 1 Month), 99.19 Area %; in data set [3] (pH = 4.5/40° C., 1 Week), 99.72 Area %; in data set [3] (pH = 4.5/40° C., 2 Months), 98.65 Area %; in data set [3] (pH = 4.5/40° C., 2 Weeks), 99.57 Area %. Also, the “Stability by HPLC” value in data set [3] (pH = 4.5/40° C., 3 Months) amounted to 97.85 Area %; in data set [3] (pH = 4.5/40° C., 6 Months), 96.01 Area %; in data set [3] (pH = 4.5/40° C., Initial) it was 99.76 Area %; in data set [3] (pH = 4.5 @ 25° C., 1 Month) it was 99.73 Area %; in data set [3] (pH = 4.5 @ 25° C., 1 Week), 99.82 Area %; in data set [3] (pH = 4.5 @ 25° C., 2 Months), 99.71 Area %. For the same molecule, the “Stability by HPLC” value in data set [3] (pH = 4.5 @ 25° C., 2 Weeks) turned out to be 99.81 Area %; in data set [3] (pH = 4.5 @ 25° C., 3 Months) it was 99.62 Area %; in data set [3] (pH = 4.5 @ 25° C., 6 Months), 99.47 Area %; in data set [3] (pH = 4.5 @ 25° C., Initial), 99.76 Area %. In data set [3] (both pH's (3.5 and 4.5) at 25° C.), the T90 entry was “exceed two years”. In addition, the estimated shelf-life result in data set [3] (mometasone furoate formulation of the invention) was “greater than two years”. In data set [3] (pH 4.5, 25° C.), the “T90, stable for” value is “six to eight years”.
As to “Sulfobutyl ether β-cyclodextrin [CAPTISOL]”, the hemolytic behavior entry in data set [4] was “essentially no hemolytic behavior”.
